Columns and labels:
[1] = target: T1, human sphingosine-1-phosphate receptor 1 (S1P1) (Homo sapiens, UniProt P21453); assay: Inhibition of cAMP production (HTRF cAMP HiRange), S1P1 CHO-K1 cells; assay type: cell-based; details: for Emax: CHO-K1, efficacy normalized to maximum efficacy of fingolimod, read-out: hS1P1 CAMP SPAN; for EC50: read-out: hS1P1 CAMP pEC50 (converted)
Outline: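 CHO-K1 cells co-expressing human S1P1 (C-terminal ProLink tag) and EA-β-arrestin2, plated overnight; after 30 min compound incubation at 37 °C, intracellular cAMP measured by HTRF TR-FRET following 1 h at room temperature. Values normalized to fingolimod.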
Target sequence in this assay (P21453 whole entry): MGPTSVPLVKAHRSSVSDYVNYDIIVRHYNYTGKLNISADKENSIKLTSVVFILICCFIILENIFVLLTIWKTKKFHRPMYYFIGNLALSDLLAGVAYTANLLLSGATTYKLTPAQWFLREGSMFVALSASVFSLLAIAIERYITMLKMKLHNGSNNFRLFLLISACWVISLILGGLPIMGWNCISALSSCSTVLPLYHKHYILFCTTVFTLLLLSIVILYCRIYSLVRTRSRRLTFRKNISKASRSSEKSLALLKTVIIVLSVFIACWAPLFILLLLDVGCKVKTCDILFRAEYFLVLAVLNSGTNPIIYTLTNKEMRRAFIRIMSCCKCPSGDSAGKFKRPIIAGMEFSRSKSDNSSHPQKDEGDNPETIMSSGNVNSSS

[2] = target: T1, human sphingosine-1-phosphate receptor 1 (S1P1); assay: β-Arrestin2 recruitment assay (PathHunter), S1P1 CHO-K1 cells; assay type: cell-based; details: for Emax: efficacy normalized to maximum efficacy of fingolimod, read-out: hS1P1 B-arrestin2 SPAN; for EC50: β-arrestin2 recruitment, read-out: hS1P1 B-arrestin2 pEC50 (converted)
Outline: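 CHO-K1 cells co-expressing EA-β-arrestin2 and ProLink-tagged human S1P1 plated overnight, then stimulated 60 min at 37 °C. Enzyme-fragment complementation (β-galactosidase) detected after 1 h at room temperature by luminescence; values normalized to fingolimod.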
Target sequence in this assay (P21453 whole entry): as above
Target sequence in this assay (P32121 whole entry partner): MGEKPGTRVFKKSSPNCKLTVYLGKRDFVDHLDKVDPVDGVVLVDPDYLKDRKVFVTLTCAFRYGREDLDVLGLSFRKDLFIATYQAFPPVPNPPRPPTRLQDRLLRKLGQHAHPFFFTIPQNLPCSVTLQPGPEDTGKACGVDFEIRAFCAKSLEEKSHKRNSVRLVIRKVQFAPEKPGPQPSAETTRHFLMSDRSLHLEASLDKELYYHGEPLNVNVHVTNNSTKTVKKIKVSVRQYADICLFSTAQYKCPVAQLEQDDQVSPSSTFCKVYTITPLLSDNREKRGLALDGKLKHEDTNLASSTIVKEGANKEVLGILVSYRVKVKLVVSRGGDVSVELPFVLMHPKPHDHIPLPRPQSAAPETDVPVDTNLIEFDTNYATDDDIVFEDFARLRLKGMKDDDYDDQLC

[3] = inhibition of cAMP production, potency
[4] = CHO-K1, β-arrestin2 recruitment
[5] = inhibition of cAMP production, S1P1

`Cc1ccc(-c2nc(-c3ccc4c(c3)nnn4C3CCCC3)no2)cc1` [Compound 235, 3-(1-cyclopentyl-1H-benzo[d][1,2,3]triazol-5-yl)-5-(p-tolyl)-1,2,4-oxadiazole] was tested, and the Emax ([1]; inhibition of cAMP production) was < 75%, the EC50 [1, 3] was > 0.316 µM and the Emax [2, 4] was < 75%. The EC50 ([2]; potency) was > 10 µM.
With `CC(C)n1nnc2cc(-c3noc(-c4cccc(COc5ccccc5)c4)n3)ccc21` [Compound 23, 3-(1-isopropyl-1H-benzo[d][1,2,3]triazol-5-yl)-5-(3-(phenoxy-methyl)phenyl)-1,2,4-oxadiazole] the Emax ([1]; inhibition of cAMP production) was < 75%, the EC50 [1, 3] was > 0.316 µM and the Emax [2, 4] was < 75%. For the same compound, the EC50 ([2]; potency) was > 10 µM.
In the case of `CC(C)Cn1nnc2cc(-c3nc4cccc(Br)c4o3)ccc21` [Compound 454, 7-bromo-2-(1-isobutyl-1H-benzo[d][1,2,3]triazol-5-yl)benzo[d]oxazole], the Emax [1] is reported as > 75%, the EC50 [1, 5] is reported as < 0.316 µM and the Emax ([2]; CHO-K1) is reported as > 75%.
`Cc1nc2cc(-c3nnc(-c4ccc(NC(C)C)c(C#N)c4)o3)ccc2[nH]1` [Compound 560, 5-[5-(2-methy1-1H-1,3-benzodiazol-5-yl)-1,3,4-oxadiazol-2-yl]-2-[(propan-2-yl)amino]benzonitrile] was tested, and the Emax [1] was > 75%, the EC50 [1, 5] was < 0.316 µM and the Emax ([2]; CHO-K1) was > 75%. For the same compound, the EC50 ([2]; S1P1) was < 10 µM.
For `CCC1(CC)CC(=O)c2cc(-c3nc(-c4cccc(Cl)c4)no3)ccc2O1` [Compound 261, 6-[3-(3-chlorophenyl)-1,2,4-oxadiazol-5-yl]-2,2-diethyl-chroman-4-one], the Emax ([1]; inhibition of cAMP production) was > 75%, the EC50 [1, 3] was > 0.316 µM and the Emax [2, 4] was < 75%. For the same compound, the EC50 ([2]; potency) was < 10 µM.
In the case of `CCC1(CC)CC(=O)c2cc(-c3nc(-c4ccc(F)nc4)no3)ccc2O1` [Compound 546, 2,2-diethyl-6-(3-(6-fluoropyridin-3-yl)-1,2,4-oxadiazol-5-yl)chroman-4-one], the Emax [1] is reported as < 75%, the EC50 [1, 5] is reported as > 0.316 µM and the Emax ([2]; CHO-K1) is reported as < 75%. The EC50 ([2]; S1P1) was > 10 µM.
In the case of `Cc1cncc(-c2nc(-c3ccc4c(c3)nnn4C(C)C)no2)c1` [Compound 159, 3-(1-isopropyl-1H-benzo[d][1,2,3]triazol-5-yl)-5-(5-methylpyridin-3-yl)-1,2,4-oxadiazole], the Emax ([1]; inhibition of cAMP production) is reported as < 75%, the EC50 [1, 3] is reported as > 0.316 µM and the Emax [2, 4] is reported as < 75%. The EC50 ([2]; potency) was > 10 µM.
With `CCC1(CC)CC(=O)c2cc(-c3nc(-c4ccn[nH]4)no3)ccc2O1` [Compound 470, 6-(3-(1H-pyrazol-5-yl)-1,2,4-oxadiazol-5-yl)-2,2-diethyl-chroman-4-one] the Emax [1] was > 75%, the EC50 [1, 5] was > 0.316 µM and the Emax ([2]; CHO-K1) was > 75%. For the same compound, the EC50 ([2]; S1P1) was > 10 µM.
For `CC(C)n1nnc2cc(-c3nc(-c4ccccc4F)co3)ccc21` [Compound 21, 5-[4-(2-fluorophenyl)-1,3-oxazol-2-yl]-1-(propan-2-yl)-1H-1,2,3-benzotriazole], the Emax ([1]; inhibition of cAMP production) was > 75%, the EC50 [1, 3] was > 0.316 µM and the Emax [2, 4] was > 75%. The EC50 ([2]; potency) was > 10 µM.
`CCC1(CC)CC(=O)c2cc(-c3nc(-c4ccc5c(c4)CC(=O)N5)no3)ccc2O1` [Compound 416, 5-(5-(2,2-diethyl-4-oxochroman-6-yl)-1,2,4-oxadiazol-3-yl)indolin-2-one] was tested, and the Emax [1] was > 75%, the EC50 [1, 5] was < 0.316 µM and the Emax ([2]; CHO-K1) was > 75%. The EC50 ([2]; S1P1) was < 10 µM.
In the case of `CCC1(CC)CC(=O)c2cc(-c3nc(-c4ccc(N(C)C)cc4)no3)ccc2O1` [Compound 60, 6-(3-(4-(dimethyl-amino)phenyl)-1,2,4-oxadiazol-5-yl)-2,2-diethylchroman-4-one], the Emax ([1]; inhibition of cAMP production) is reported as < 75%, the EC50 [1, 3] is reported as > 0.316 µM and the Emax [2, 4] is reported as < 75%. The EC50 ([2]; potency) was > 10 µM.
With `CC(C)Nc1ccc(-c2nnc(-c3ccc4[nH]c(=O)oc4c3)o2)cc1C#N` [Compound 484, 5-[5-(2-oxo-2,3-dihydro-1,3-benzoxazol-6-yl)-1,3,4-oxadiazol-2-yl]-2-[(propan-2-yl)amino]benzonitrile] the Emax [1] was > 75%, the EC50 [1, 5] was < 0.316 µM and the Emax ([2]; CHO-K1) was > 75%. The EC50 ([2]; S1P1) was < 10 µM.
With `CC1CC(=O)c2ccc(-c3nc(-c4cccnc4)no3)cc2O1` (stereo not shown) [Compound 535, 2-methyl-7-[3-(pyridin-3-yl)-1,2,4-oxadiazol-5-yl]-3,4-dihydro-2H-1-benzopyran-4-one] the Emax [1] was < 75%, the EC50 [1, 5] was > 0.316 µM and the Emax ([2]; CHO-K1) was < 75%. The EC50 ([2]; S1P1) was < 10 µM.
In the case of `Cc1cn(C)nc1-c1noc(-c2ccc3c(c2)nnn3CC(C)(C)O)n1` [Compound 518, 1-{5-[3-(1,4-dimethyl-1H-pyrazol-3-yl)-1,2,4-oxadiazol-5-yl]-1H-1,2,3-benzotriazol-1-yl}-2-methylpropan-2-ol], the Emax [1] is reported as > 75%, the EC50 [1, 5] is reported as > 0.316 µM and the Emax ([2]; CHO-K1) is reported as < 75%. For the same compound, the EC50 ([2]; S1P1) was > 10 µM.
With `CC(C)Nc1ccc(-c2nnc(-c3ccc4c(c3)ncn4C)o2)cc1C#N` [Compound 572, 5-[5-(1-methyl-1H-1,3-benzodiazol-5-yl)-1,3,4-oxadiazol-2-yl]-2-[(propan-2-yl)amino]benzonitrile] the Emax [1] was < 75%, the EC50 [1, 5] was > 0.316 µM and the Emax ([2]; CHO-K1) was > 75%. The EC50 ([2]; S1P1) was > 10 µM.
In the case of `CCC1(CC)CC(=O)c2cc(-c3nc(-c4cnc[nH]4)no3)ccc2O1` [Compound 466, 6-(3-(1H-imidazol-5-yl)-1,2,4-oxadiazol-5-yl)-2,2-diethylchroman-4-one], the Emax [1] is reported as > 75%, the EC50 [1, 5] is reported as > 0.316 µM and the Emax ([2]; CHO-K1) is reported as > 75%. For the same compound, the EC50 ([2]; S1P1) was > 10 µM.
With `FC(F)(F)c1cccc(-c2nc(-c3ccc4c(c3)nnn4C3CCCC3)no2)c1` [Compound 12, 3-(1-cyclopentyl-1H-benzo[d][1,2,3]triazol-5-yl)-5-(3-(trifluoro-methyl)phenyl)-1,2,4-oxadiazole] the Emax ([1]; inhibition of cAMP production) was < 75%, the EC50 [1, 3] was > 0.316 µM and the Emax [2, 4] was < 75%. For the same compound, the EC50 ([2]; potency) was > 10 µM.
`COc1ccccc1-c1nnc(-c2ccc3c(c2)nnn3C(C)C)o1` [Compound 35, 5-[5-(2-methoxyphenyl)-1,3,4-oxadiazol-2-yl]-1-(propan-2-yl)-1H-1,2,3-benzotriazole] was tested, and the Emax ([1]; inhibition of cAMP production) was > 75%, the EC50 [1, 3] was > 0.316 µM and the Emax [2, 4] was > 75%. The EC50 ([2]; potency) was > 10 µM.
For `N#Cc1cc(-c2nnc(-c3ccc4[nH]c(=O)oc4c3)o2)ccc1NCC1CC1` [Compound 486, 2-[(cyclopropyl-methyl)amino]-5-[5-(2-oxo-2,3-dihydro-1,3-benzoxazol-6-yl)-1,3,4-oxadiazol-2-yl]benzonitrile], the Emax [1] was < 75%, the EC50 [1, 5] was < 0.316 µM and the Emax ([2]; CHO-K1) was > 75%. For the same compound, the EC50 ([2]; S1P1) was > 10 µM.
For `CC(C)n1ccc2cc(-c3nsc(-c4ccccc4F)n3)ccc21` [Compound 380, 5-[5-(2-fluorophenyl)-1,2,4-thiadiazol-3-yl]-1-(propan-2-yl)-1H-indole], the Emax [1] was < 75%, the EC50 [1, 5] was > 0.316 µM and the Emax ([2]; CHO-K1) was < 75%. For the same compound, the EC50 ([2]; S1P1) was > 10 µM.
For `Oc1ccc(-c2noc(-c3ccc4c(c3)nnn4C3CCCC3)n2)cc1` [Compound 13, 4-[5-(1-cyclopentyl-1H-1,2,3-benzotriazol-5-yl)-1,2,4-oxadiazol-3-yl]phenol], the Emax ([1]; inhibition of cAMP production) was < 75%, the EC50 [1, 3] was < 0.316 µM and the Emax [2, 4] was < 75%. For the same compound, the EC50 ([2]; potency) was < 10 µM.
With `COc1cccc(-c2nc(-c3ccc4c(ccn4C(C)C)c3)no2)c1` [Compound 392, 3-(1-isopropyl-1H-indol-5-yl)-5-(3-methoxyphenyl)-1,2,4-oxadiazole] the Emax [1] was < 75%, the EC50 [1, 5] was > 0.316 µM and the Emax ([2]; CHO-K1) was < 75%. The EC50 ([2]; S1P1) was > 10 µM.
With `CCC1(CC)CC(=O)c2cc(-c3nc(-c4ccc[nH]4)no3)ccc2O1` [Compound 464, 6-(3-(1H-pyrrol-2-yl)-1,2,4-oxadiazol-5-yl)-2,2-diethylchroman-4-one] the Emax [1] was < 75%, the EC50 [1, 5] was < 0.316 µM and the Emax ([2]; CHO-K1) was < 75%. For the same compound, the EC50 ([2]; S1P1) was > 10 µM.
